Legend:
[1] = system: G. lamblia trophozoites (luciferase expressing, WBC6); assay: microbe, parasite or virus in culture; type: cell-based, Giardia lamblia; conditions: for Giardia (16 uM) Mean % inhibition: initial Pathogen Box screen, single concentration 16 µM, inhibition compared to DMSO wells; for G. lamblia inhibition of parasite growth in the initial screen: 16 μM, 24 hours; for inhibition at 16 µM: Giardia duodenalis, read-out: Giardia (16 uM) Mean % inhibition
Protocol: Trophozoites were harvested by chilling cultures on ice for 30 minutes and plated by adding 150 μL per well at a concentration of 250,000 cells/mL. Metronidazole (Sigma, St. Louis, MO) was used as a control and was serially diluted 1:2 from 40 μM to 0.04 μM and 150 μL was added to the 150 μL of the G. lamblia trophozoites. Plates were covered in plastic low-evaporation lids, sealed in individual anaerobic BD GasPak Bio-Bags (Becton Dickinson, San Jose, CA) and incubated at 37 °C for 24 hours. […] A duplicate plate was concurrently set up and assayed using a MOXI Z Mini Automated Cell Counter Kit (Orflo, Ketchum, ID). Results obtained from the bioluminescence assay and the MOXI counter data were compared to evaluate their correlation to each another. Albendazole (Sigma, St. Louis, MO), an alternative giardiasis therapeutic, was assayed in concentrations from 4 μM to 0.004 μM with only the luciferase expressing G. lamblia cells. […]

[2] = system: C. parvum (UGA1 Nluc expressing strain in HCT-8 cells); assay: microbe, parasite or virus in culture; type: cell-based, Cryptosporidium parvum; conditions: for Crypto (10 uM) Mean % inhibition: initial Pathogen Box screen, single concentration 10 µM, inhibition compared to DMSO wells; for inhibition at 10 µM: Cryptosporidium parvum, HCT-8, read-out: Crypto (10 uM) Mean % inhibition
Protocol: Growth inhibition and EC50 determination assays were performed using UGA1 Nluc expressing C. parvum strain in HCT-8 cells (ATCC^©, Manassas, VA) as previously described. HCT-8 cells were inoculated onto 96-well plates and allowed to grow for 48 hours to 90–100% confluence and then treated with single concentration (10 μM) or serially diluted compounds prior to oocyst infection. C. parvum oocysts were incubated for 10 minutes in 10% bleach at room temperature and then washed with DPBS. […] The cell monolayers were lysed for 1 hour before adding Nano-Glo® luciferase reagent (Promega, Madison, WI), and measuring relative luminescence units (RLU) in an EnVision Plate Reader (Perkin Elmer, Waltham, MA). Several parameters, including reproducibility and reliability, were previously evaluated to optimize this assay for low and high-throughput (HTP) screening of small molecule compounds against C. parvum. EC50 values were calculated using Prism 7 software (GraphPad Software, San Diego, CA).
C. parvum screening against the Pathogen Box compounds was performed as previously described starting at a concentration of 10 μM [23].

Compound	Giardia (16 uM) Mean % inhibition [1]	Crypto (10 uM) Mean % inhibition [2]	G. lamblia inhibition of parasite growth in the initial screen [1]	inhibition at 16 µM [1]	inhibition at 10 µM [2]
O[C@@H](c1cc(C(F)(F)F)nc2c(C(F)(F)F)cccc12)[C@H]1CCCCN1 [MMV000016]	16%	77%			
COc1cc(N[C@@H](C)CCCN)c2ncccc2c1 [MMV000023]	47%	14%			
N=C(N)c1ccc(OCCCCCOc2ccc(C(=N)N)cc2)cc1 [MMV000062, pentamidine, reference compound]			did not show up in the screen	9%	50%
CCN(CC)CCCCCCNc1cc(OC)cc2c(C)ccnc12 [MMV000063]	26%	62%			
O=S(=O)(c1ccc(Cl)cc1)N1CCN(C(=S)NCc2ccco2)CC1 [MMV000858]	3%	41%			
COc1cccc2c(C)nc(N=C(N)N)nc12 [MMV000907]	68%	67%			
CCCS(=O)(=O)N1CCC(CO)(Cc2ccccc2C(F)(F)F)CC1 [MMV001059]	10%	X* (Mean or standard deviation are negative but not significantly different from the control to be a growth promoter)			
COC(=O)C1=C(C)NC(C)=C(C(=O)OC(C)C)[C@H]1c1cccc2nonc12 [MMV001493]	25%	53%			
CNCC[C@H](Oc1ccc(C(F)(F)F)cc1)c1ccccc1 [MMV001561]	15%	X* (Mean or standard deviation are negative but not significantly different from the control to be a growth promoter)			
NCCC[C@@](N)(C(=O)O)C(F)F [MMV001625]	16%	36%			
O=C(C1CCCCC1)N1CC(=O)N2CCc3ccccc3[C@@H]2C1 [MMV002529]	16%	55%			
CCN(CC)C(=O)N1CCN(C)CC1 [MMV002816]	29%	X* (Mean or standard deviation are negative but not significantly different from the control to be a growth promoter)			
COC(=O)Nc1nc2ccc(C(=O)c3ccccc3)cc2[nH]1 [MMV003152, mebendazole, reference compound]			did not show up in the screen	26%	91%
CN1CCCN(C(c2ccccc2)c2ccc(Cl)cc2)CC1 (stereo not drawn) [MMV004168]	27%	56%			
O=C1Nc2ccc(Br)cc2C12NCCc1c2[nH]c2ccccc12 (stereo not drawn) [MMV006239]	X* (Mean or standard deviation are negative but not significantly different from the control to be a growth promoter)	53%			
Cc1ccc2[nH]c3c(NCCN(C)C)ncnc3c2c1 [MMV006372]	21%	64%			
COc1cc2ncnc(NC3CCN(Cc4ccccc4)CC3)c2cc1OC [MMV006741]	35%	45%			
Cc1cc(Cl)c(S(=O)(=O)N2CCCC2)cc1OCC(=O)NC1CCCCC1 [MMV006833]	17%	70%			

Compound	Giardia (16 uM) Mean % inhibition [1]	Crypto (10 uM) Mean % inhibition [2]	G. lamblia inhibition of parasite growth in the initial screen [1]	inhibition at 16 µM [1]	inhibition at 10 µM [2]
CN(C)c1cc(NC(=O)Nc2ccccc2)c2ccccc2n1 [MMV006901]	49%	X* (Mean or standard deviation are negative but not significantly different from the control to be a growth promoter)			
Cc1cc(NC(=O)c2ccc(S(=O)(=O)N(Cc3ccccc3)C(C)C)cc2)no1 [MMV007133]	11%	X* (Mean or standard deviation are negative but not significantly different from the control to be a growth promoter)			
COc1cc(OC)cc(C(=O)NCC2Cc3cc(Cl)cc(-c4ccncc4)c3O2)c1 (stereo not drawn) [MMV007471]	23%	50%			
Cc1cc(C)n(-c2ccc(NC(=O)C3CCN(Cc4cnc(C)s4)CC3)cc2)n1 [MMV007625]	27%	X* (Mean or standard deviation are negative but not significantly different from the control to be a growth promoter)			
CCOc1ccc(-c2nc(NC(=O)CS(=O)(=O)c3ccccc3)sc2C)cc1 [MMV007638]	8%	X* (Mean or standard deviation are negative but not significantly different from the control to be a growth promoter)			
O=C(NC1CC1)c1ccc(CSCc2ccccc2Cl)o1 [MMV007803]	6%	X* (Mean or standard deviation are negative but not significantly different from the control to be a growth promoter)			
Nc1ccc(C(=O)Nc2ccc(-c3nc4ccccc4o3)cc2)cc1 [MMV007920]	60%	63%			
COc1ccc(CN2CCOc3ccc(C(C)(O)CN(C)C)cc3C2)cc1C (stereo not drawn) [MMV008439]	35%	68%			
Cc1cc(C(=O)Nc2cnn(Cc3ccc(Cl)cc3Cl)c2)no1 [MMV009054]	X* (Mean or standard deviation are negative but not significantly different from the control to be a growth promoter)	59%			
O=C(C1CCN(c2nnnn2-c2ccccc2)CC1)N1CCc2ccccc2C1 [MMV009135]	X* (Mean or standard deviation are negative but not significantly different from the control to be a growth promoter)	56%			
COc1ccc(-c2cnc3ccc(NCc4ccc(S(N)(=O)=O)cc4)nn23)cn1 [MMV010545]	X* (Mean or standard deviation are negative but not significantly different from the control to be a growth promoter)	X* (Mean or standard deviation are negative but not significantly different from the control to be a growth promoter)			
c1csc(-c2cnc3sc(NCC4CCOCC4)nn23)c1 [MMV010764]	X* (Mean or standard deviation are negative but not significantly different from the control to be a growth promoter)	X* (Mean or standard deviation are negative but not significantly different from the control to be a growth promoter)			
Cc1cc(Nc2ccc(C(F)(F)F)cc2)n2ccnc2n1 [MMV011229]	35%	X* (Mean or standard deviation are negative but not significantly different from the control to be a growth promoter)			
COc1ccc(CCN2CCC(NCc3cccc(N(C)C)c3)CC2)cc1 [MMV011511]	73%	X* (Mean or standard deviation are negative but not significantly different from the control to be a growth promoter)			
NCC(=O)N1CCn2c(nc(-c3ccccc3)c2Nc2ccc3c(c2)OCO3)C1 [MMV011691]	20%	X* (Mean or standard deviation are negative but not significantly different from the control to be a growth promoter)			
FC(F)(F)c1cnc(Sc2nnc(-c3ccncc3)o2)c(Cl)c1 [MMV011765]	53%	89%			
Cc1ccc(NC(=O)c2nc[nH]c2C(=O)Nc2nc3ccccc3[nH]2)c(C)c1 [MMV011903]	21%	62%			

— article PMC6095626, “Screening of the Pathogen Box for inhibitors with dual efficacy against Giardia lamblia and Cryptosporidium parvum” (PLoS Neglected Tropical Diseases, 2018)
